Source: patent US20140315975A1, “APOPTOSIS-INDUCING AGENT” (NITTO DENKO CORPORATION, priority 2011, published 2014)

Key:
Type in all cases: cell-based
[1] = system: M7609 cells; assay: Apoptosis induction by TUNEL staining
Description: A TUNEL method was carried out as follows using an In Situ Cell Death Detection Kit, POD (Roche). GST-π knockdown cells obtained by the procedure of Example 1 (2) were plated on a cover slip placed in a 35 mm plastic tissue culture dish so as to give 1×10^5 cells/2 mL. After the medium was aspirated, 4% paraformaldehyde in PBS was added, and incubation was carried out at room temperature for 60 min., thus fixing the cells. In order to carry out blocking of endogenous peroxidase, incubation was carried out with 3% H2O2 in methanol at room temperature for 10 min. Subsequently, permeabilization of cells was carried out by treating with 0.1% Triton X-100 in 0.1% sodium citrate on ice for 2 min. The TUNEL reaction was carried out in a humidity chamber at 37° C. for 60 min. Detection of TUNEL-positive cells was carried out by a coloration reaction using a DAB substrate after reacting a peroxidase labeled anti-fluorescein antibody at 37° C. for 30 min. Counter staining was carried out using hematoxylin, stained cells were examined under an optical microscope, and TUNEL-positive cells were evaluated as apoptotic cells. Washing between the operations was carried out by rinsing with PBS.

[2] = system: Raf-1; assay: Immunoprecipitation of Raf-1 and anti-ubiquitin western blot; conditions: M7609 cells
Description: In the same way as for Example 1 (3), on the 2nd day after siRNA transfection culturing was carried out for 16 hours in a serum-free medium, and a cell extract was collected. The cell extract thus obtained was subjected to quantitative protein analysis using a Micro BCA Protein Assay Kit (Scramble siRNA: 8.88 μg/μL, GST-π siRNA: […]). 0.5 μg of the cell extract was mixed with anti-Raf-1 antibody conjugated to Dynabeads Protein G (Invitrogen), incubation was carried out at 4° C. for 2 hours while gently mixing in a shaker to thus isolate Raf-1 protein, and then a western blot analysis was carried out in the same way as for Example 1 (3) using an anti-ubiquitin antibody (Santa Cruz). Phosphorylation modification of Ser621, which is involved in inhibition of Raf-1 proteasome degradation, was investigated in the same manner using an anti-p-Raf-1 (Ser621) antibody (MILLIPORE).

[3] = system: EGFR/PI3K/Akt/mTOR signal cascade; assay: Western blot of EGFR/PI3K/Akt/mTOR signal; conditions: M7609 cells, compared with Scramble siRNA (FIG. 11)
Description: Expression of each protein constituting the EGFR/PI3K/Akt/mTOR signal cascade was analyzed in the same way as for Example 1 (1), (2), and (4) except that, as primary antibodies, anti-p-EGFR (Tyr1068) antibody (Cell Signaling), anti-EGFR antibody (Santa Cruz), anti-p-PI3K p85 (Tyr458)/p55 (Tyr199) antibody (Cell Signaling), anti-PI3K, p85 antibody (MILLIPORE), anti-p-Akt (Ser473) antibody (Cell Signaling), anti-Akt antibody (Cell Signaling), anti-p-p70S6K (Thr389) antibody (Cell Signaling), anti-p-p70S6K (Thr421/Ser424) antibody (Cell Signaling), and anti-p70S6K antibody (Cell Signaling) were used.

[4] = system: M7609 cells; assay: Autophagy induction by electron microscope examination; conditions: 2 days after transfection, electron microscope (FIG. 7)
Description: On the 1st day after siRNA transfection in Example 1 (2), the cells were plated on an 8-well culture slide for tissue culture so as to give 0.4×10^5 cells/0.5 mL. Fixation was carried out using 2.5% glutaraldehyde in 0.1 M cacodylic acid buffer (pH 7.4) for hour, and after rinsing with 0.1 M cacodylic acid buffer post-fixation was carried out using 1% OsO4 and 1.5% potassium ferrocyanide for 2 hours. After dehydration was carried out three times with ethanol for 10 min., embedding in an epoxy resin (TAAB Laboratories Equipment) was carried out. An ultrathin section was prepared using a diamond knife, electron staining was carried out using uranyl acetate and lead citrate, and the section was examined using an electron microscope (Hitachi Transmission Electron Microscope H-7500, Hitachi High-Technologies Corporation).

GST-π siRNA: GST-π siRNA (SEQ ID No: 1: GGGAGGCAAGACCUUCAUUTT, siRNA ID#2385, Ambion) (chemistry not given here)
proportion of apoptosis-positive cells (TUNEL-positive per 1000 cells) ([1]; 1 to 4 days after transfection (FIG. 10)): gradually but continuously increased up to 4th day
TUNEL-positive cells (apoptosis) ([1]; 3rd to 5th day after transfection, stained images (FIG. 9)): TUNEL-positive cells, that is, apoptosis, was observed
ubiquitination of Raf-1 ([2]; 2nd day after transfection, compared with Scramble siRNA (FIG. 3)): enhanced
expression of Raf protein and Ser621 phosphorylated Raf protein (p-Raf-1 (S621)) ([2]; Raf-1 immunoprecipitate (FIG. 3)): decreased slightly
phosphorylation of each protein constituting the EGFR/PI3K/Akt/mTOR signal cascade [3]: reduced
autophagosome formation [4]: autophagosome was formed
